Experimental data from patent publication US20190248779A1, “COMPOUNDS, COMPOSITIONS, AND METHODS FOR INCREASING CFTR ACTIVITY” (Proteostasis Therapeutics, Inc., priority 2016, published 2019).

Target: T1, ΔF508-CFTR (Homo sapiens, UniProt P13569, DEL508-508)
T1 construct: Primary lung epithelial cells homozygous for the Cystic Fibrosis-causing ΔF508 mutation were differentiated for a minimum of 4 weeks; endogenous in cells; host or cells: primary lung (bronchial) epithelial cells (hBE) homozygous for ΔF508, differentiated at an air-liquid interface
T1 sequence (P13569 with tags, fused parts or gaps DEL508-508): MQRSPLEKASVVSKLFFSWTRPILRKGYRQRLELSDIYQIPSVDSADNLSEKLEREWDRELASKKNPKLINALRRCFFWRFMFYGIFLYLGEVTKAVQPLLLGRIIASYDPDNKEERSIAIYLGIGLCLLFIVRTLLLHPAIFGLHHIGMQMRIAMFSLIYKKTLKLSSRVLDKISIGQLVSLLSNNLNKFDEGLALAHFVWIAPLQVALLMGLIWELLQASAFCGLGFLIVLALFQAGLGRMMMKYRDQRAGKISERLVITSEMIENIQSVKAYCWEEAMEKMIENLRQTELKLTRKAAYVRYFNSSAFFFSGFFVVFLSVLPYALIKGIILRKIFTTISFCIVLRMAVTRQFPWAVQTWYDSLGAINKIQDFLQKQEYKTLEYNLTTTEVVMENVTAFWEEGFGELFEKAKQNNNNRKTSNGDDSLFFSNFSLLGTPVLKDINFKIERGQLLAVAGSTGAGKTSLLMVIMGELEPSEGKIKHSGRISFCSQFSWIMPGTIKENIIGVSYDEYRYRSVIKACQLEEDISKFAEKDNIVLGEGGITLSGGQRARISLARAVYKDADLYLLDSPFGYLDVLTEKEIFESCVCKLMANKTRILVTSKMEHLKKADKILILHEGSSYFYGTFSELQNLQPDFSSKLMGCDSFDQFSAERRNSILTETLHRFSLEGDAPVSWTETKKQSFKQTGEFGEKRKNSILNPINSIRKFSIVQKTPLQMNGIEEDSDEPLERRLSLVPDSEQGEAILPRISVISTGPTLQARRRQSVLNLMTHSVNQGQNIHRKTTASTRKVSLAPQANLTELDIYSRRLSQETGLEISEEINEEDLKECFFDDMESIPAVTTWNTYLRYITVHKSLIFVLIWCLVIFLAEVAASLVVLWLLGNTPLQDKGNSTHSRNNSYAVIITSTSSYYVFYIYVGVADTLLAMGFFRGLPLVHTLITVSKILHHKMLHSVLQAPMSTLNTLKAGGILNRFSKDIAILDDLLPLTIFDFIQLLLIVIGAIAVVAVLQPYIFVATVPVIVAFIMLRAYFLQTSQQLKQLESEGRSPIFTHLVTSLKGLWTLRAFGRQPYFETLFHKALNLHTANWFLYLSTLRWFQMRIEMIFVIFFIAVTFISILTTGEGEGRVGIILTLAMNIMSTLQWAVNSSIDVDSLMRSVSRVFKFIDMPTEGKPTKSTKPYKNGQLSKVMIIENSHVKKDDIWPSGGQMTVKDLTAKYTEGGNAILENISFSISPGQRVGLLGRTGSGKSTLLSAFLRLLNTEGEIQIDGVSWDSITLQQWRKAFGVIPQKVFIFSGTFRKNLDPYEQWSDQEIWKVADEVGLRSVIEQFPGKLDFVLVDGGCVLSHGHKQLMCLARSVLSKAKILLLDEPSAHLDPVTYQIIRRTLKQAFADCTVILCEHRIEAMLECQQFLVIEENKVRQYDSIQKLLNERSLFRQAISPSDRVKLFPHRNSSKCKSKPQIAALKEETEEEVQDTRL
Assay: hBE equivalent current (Ieq) assay
Type: cell-based
Details: 24 h, relative to a CFTR amplifier at 3 uM, AUC of equivalent chloride current, primary lung epithelial cells homozygous for ΔF508; for Activity 3 μM: compound at 3 μM; for Activity 10 μM: compound at 10 μM
Description: ii. hBE Equivalent Current (Ieq) Assay
Primary lung epithelial cells homozygous for the Cystic Fibrosis-causing ΔF508 mutation were differentiated for a minimum of 4 weeks in an air-liquid interface on Costar 24 well HTS filter plates prior to the equivalent current (Ieq) measurements. Cells were apically mucus-washed for 30 minutes 24 h prior to treatment with compounds. The basolateral media was removed and replaced with media containing the compound of interest diluted to its final concentration from DMSO stocks. Treated cells were incubated at 37° C. and 5% CO2 for 24 hours. At the end of the treatment period, the media was changed to the Ieq experimental solution for 2 hours before the experiment and plates are maintained in a CO2-free incubator during this period. The plates containing the cells were then placed in pre-warmed heating blocks at 36° C.±0.5 for 15 minutes before measurements are taken. The transepithelial voltage (VT) and conductance (GT) were measured using a custom 24 channel current clamp (TECC-24) with 24 well electrode manifold. The Ieq assay measurements were made following additions with standardized time periods:
1. The baseline VT and GT values were measured for approximately 20 minutes.
2. Benzamil was added to block ENaC for 15 minutes.
3. Forskolin plus VX-770 were added to maximally activate ΔF508-CFTR for 27 minutes.
4. Bumetanide was added to inhibit the NaK2Cl cotransporter and shut-off secretion of chloride.
The activity data captured was the area under the curve (AUC) for the traces of the equivalent chloride current. The AUC was collected from the time of the forskolin/VX-770 addition until the inhibition by bumetanide addition. Correction in response to compound treatment was scored as the increase in the AUC for compound-treated samples over that of vehicle-treated samples.
The results are shown below in Table 1. + indicates activity <150% of a CFTR amplifier with compound at concentration shown and amplifier at 3 uM; ++ indicates activity >150% of a CFTR amplifier with compound at concentration shown and amplifier at 3 uM.

Compound | Activity 3 μM | Activity 10 μM
COc1cccc(-c2ccc(=O)n(C(C)C(=O)Nc3cncc(C(F)(F)F)c3)n2)c1 (stereo not shown) [Compound 12, 2-(3-(3-Methoxyphenyl)-6-oxopyridazin-1(6H)-yl)-N-(5-(trifluoromethyl)pyridin-3-yl)propanamide] | + (activity <150% of a CFTR amplifier with compound at concentration shown and amplifier at 3 uM) | + (activity <150% of a CFTR amplifier with compound at concentration shown and amplifier at 3 uM)
CC(C(=O)Nc1ccc(C(F)(F)F)cc1)n1nc(-c2cnc(Cl)s2)ccc1=O (stereo not shown) [Compound 27, 2-[3-(2-Chloro-1,3-thiazol-5-yl)-6-oxo-1,6-dihydropyridazin-1-yl]-N-[4-(trifluoromethyl)phenyl]propanamide] |  | + (activity <150% of a CFTR amplifier with compound at concentration shown and amplifier at 3 uM)
COc1ccnc(-c2ccc(=O)n(C(C)C(=O)Nc3ccc(C(F)(F)F)cc3)n2)c1 (stereo not shown) [Compound 21, 2-(3-(4-Methoxypyridin-2-yl)-6-oxopyridazin-1(6H)-yl)-N-(4-(trifluoromethyl)phenyl)propanamide] |  | + (activity <150% of a CFTR amplifier with compound at concentration shown and amplifier at 3 uM)
COc1cccc(-c2ccc(=O)n(C(C)C(=O)NC3CCCCC3)n2)c1 (stereo not shown) [Compound 4, N-Cyclohexyl-2-(3-(3-methoxyphenyl)-6-oxopyridazin-1(6H)-yl)propanamide] | + (activity <150% of a CFTR amplifier with compound at concentration shown and amplifier at 3 uM) | + (activity <150% of a CFTR amplifier with compound at concentration shown and amplifier at 3 uM)
COc1cncc(-c2ccc(=O)n(C(C)C(=O)Nc3ccc(C(F)(F)F)cc3)n2)c1 (stereo not shown) [Compound 20, 2-(3-(5-Methoxypyridin-3-yl)-6-oxopyridazin-1(6H)-yl)-N-(4-(trifluoromethyl)phenyl)propanamide] | ++ (activity >150% of a CFTR amplifier with compound at concentration shown and amplifier at 3 uM) | ++ (activity >150% of a CFTR amplifier with compound at concentration shown and amplifier at 3 uM)
COc1cccc(-c2ccc(=O)n(C(C)C(=O)Nc3cc(C(F)(F)F)ccn3)n2)c1 (stereo not shown) [Compound 11, 2-(3-(3-Methoxyphenyl)-6-oxopyridazin-1(6H)-yl)-N-(4-(trifluoromethyl)pyridin-2-yl)propanamide] | ++ (activity >150% of a CFTR amplifier with compound at concentration shown and amplifier at 3 uM) | ++ (activity >150% of a CFTR amplifier with compound at concentration shown and amplifier at 3 uM)
CC(C(=O)Nc1ccc(C(F)(F)F)cc1)n1nc(-c2ccc(Cl)s2)ccc1=O (stereo not shown) [Compound 14, 2-(3-(5-Chlorothiophen-2-yl)-6-oxopyridazin-1(6H)-yl)-N-(4-(trifluoromethyl)phenyl)propanamide] | ++ (activity >150% of a CFTR amplifier with compound at concentration shown and amplifier at 3 uM) | ++ (activity >150% of a CFTR amplifier with compound at concentration shown and amplifier at 3 uM)
CC(C(=O)Nc1ccc(C(F)(F)F)cn1)n1nc(-c2cccc(Cl)c2)ccc1=O (stereo not shown) [Compound 17, 2-(3-(3-Chlorophenyl)-6-oxopyridazin-1(6H)-yl)-N-(5-(trifluoromethyl)pyridin-2-yl)propanamide] | ++ (activity >150% of a CFTR amplifier with compound at concentration shown and amplifier at 3 uM) | ++ (activity >150% of a CFTR amplifier with compound at concentration shown and amplifier at 3 uM)
CC(C(=O)Nc1ccc(C(F)(F)F)cc1)n1nc(-c2csc(Cl)n2)ccc1=O (stereo not shown) [Compound 26, 2-[3-(2-Chloro-1,3-thiazol-4-yl)-6-oxo-1,6-dihydropyridazin-1-yl]-N-[4-(trifluoromethyl)phenyl]propanamide] |  | + (activity <150% of a CFTR amplifier with compound at concentration shown and amplifier at 3 uM)
COc1cccc(-c2ccc(=O)n(C(C)C(=O)Nc3cccnc3)n2)c1 (stereo not shown) [Compound 6, 2-(3-(3-Methoxyphenyl)-6-oxopyridazin-1(6H)-yl)-N-(pyridin-3-yl)propanamide] | + (activity <150% of a CFTR amplifier with compound at concentration shown and amplifier at 3 uM) | + (activity <150% of a CFTR amplifier with compound at concentration shown and amplifier at 3 uM)
CC(C(=O)Nc1ccc(C(F)(F)F)cc1)n1nc(-c2cc(Cl)sc2Cl)ccc1=O (stereo not shown) [Compound 25, 2-(3-(2,5-Dichlorothiophen-3-yl)-6-oxopyridazin-1(6H)-yl)-N-(4-(trifluoromethyl)phenyl)propanamide] |  | + (activity <150% of a CFTR amplifier with compound at concentration shown and amplifier at 3 uM)
COc1cccc(-c2ccc(=O)n(C(C)C(=O)Nc3ccc(C(F)(F)F)cc3)n2)n1 (stereo not shown) [Compound 22, 2-(3-(6-Methoxypyridin-2-yl)-6-oxopyridazin-1(6H)-yl)-N-(4-(trifluoromethyl)phenyl)propanamide] | ++ (activity >150% of a CFTR amplifier with compound at concentration shown and amplifier at 3 uM) | + (activity <150% of a CFTR amplifier with compound at concentration shown and amplifier at 3 uM)
CC(C(=O)Nc1cc(F)cc(F)c1)n1nc(-c2ccc3cc[nH]c3c2)ccc1=O (stereo not shown) [Compound 7, 2-(3-(1H-Indol-6-yl)-6-oxopyridazin-1(6H)-yl)-N-(3,5-difluorophenyl)propanamide] | + (activity <150% of a CFTR amplifier with compound at concentration shown and amplifier at 3 uM) | + (activity <150% of a CFTR amplifier with compound at concentration shown and amplifier at 3 uM)
COc1cccc(-c2ccc(=O)n(C(C)C(=O)Nc3cccc(C(F)(F)F)n3)n2)c1 (stereo not shown) [Compound 10, 2-(3-(3-Methoxyphenyl)-6-oxopyridazin-1(6H)-yl)-N-(6-(trifluoromethyl)pyridin-2-yl)propanamide] | ++ (activity >150% of a CFTR amplifier with compound at concentration shown and amplifier at 3 uM) | ++ (activity >150% of a CFTR amplifier with compound at concentration shown and amplifier at 3 uM)
COc1cccc(-c2ccc(=O)n(C(C)C(=O)Nc3ccc(C(F)(F)F)cn3)n2)c1 (stereo not shown) [Compound 8, 2-[3-(3-Methoxyphenyl)-6-oxo-1,6-dihydropyridazin-1-yl]-N-[5-(trifluoromethyl)pyridin-2-yl]propanamide] | ++ (activity >150% of a CFTR amplifier with compound at concentration shown and amplifier at 3 uM) | ++ (activity >150% of a CFTR amplifier with compound at concentration shown and amplifier at 3 uM)
COc1csc(-c2ccc(=O)n(C(C)C(=O)Nc3ccc(C(F)(F)F)cc3)n2)c1 (stereo not shown) [Compound 18, 2-(3-(4-Methoxythiophen-2-yl)-6-oxopyridazin-1(6H)-yl)-N-(4-(trifluoromethyl)phenyl)propanamide] |  | + (activity <150% of a CFTR amplifier with compound at concentration shown and amplifier at 3 uM)
CC(C(=O)Nc1ccc(C(F)(F)F)cc1)n1nc(-c2ccsc2Cl)ccc1=O (stereo not shown) [Compound 24, 2-(3-(2-Chlorothiophen-3-yl)-6-oxopyridazin-1(6H)-yl)-N-(4-(trifluoromethyl)phenyl)propanamide] |  | ++ (activity >150% of a CFTR amplifier with compound at concentration shown and amplifier at 3 uM)
CC(C(=O)Nc1ccc(C(F)(F)F)cc1)n1nc(-c2ccsc2)ccc1=O (stereo not shown) [Compound 15, 2-(6-Oxo-3-(thiophen-3-yl)pyridazin-1(6H)-yl)-N-(4-(trifluoromethyl)phenyl)propanamide] | ++ (activity >150% of a CFTR amplifier with compound at concentration shown and amplifier at 3 uM) | + (activity <150% of a CFTR amplifier with compound at concentration shown and amplifier at 3 uM)
CC(C(=O)Nc1ccc(C(F)(F)F)cc1)n1nc(-c2csc(Cl)c2)ccc1=O (stereo not shown) [Compound 16, 2-[3-(5-Chlorothiophen-3-yl)-6-oxo-1,6-dihydropyridazin-1-yl]-N-[4-(trifluoromethyl)phenyl]propanamide] | ++ (activity >150% of a CFTR amplifier with compound at concentration shown and amplifier at 3 uM) | ++ (activity >150% of a CFTR amplifier with compound at concentration shown and amplifier at 3 uM)
COc1cc(-c2ccc(=O)n(C(C)C(=O)Nc3ccc(C(F)(F)F)cc3)n2)ccn1 (stereo not shown) [Compound 19, 2-(3-(2-Methoxypyridin-4-yl)-6-oxopyridazin-1(6H)-yl)-N-(4-(trifluoromethyl)phenyl)propanamide] | + (activity <150% of a CFTR amplifier with compound at concentration shown and amplifier at 3 uM) | + (activity <150% of a CFTR amplifier with compound at concentration shown and amplifier at 3 uM)
